Laboratory results as given in publication PMC7052193, “Nanobody-enabled monitoring of kappa opioid receptor states” (Nature Communications, 2020).
Values joined by “and” are separate entries in the source; they are usually repeats but may differ in a detail not shown here. Equal entries are not always repeated.

Tests used:
KOR = KOR (Homo sapiens, UniProt P41145); experiment: Competition binding with 3H-JDTic in the absence or presence of 5 µM Nb6 or Nb39
MOR = biological target: T1, MOR (Homo sapiens, UniProt P35372); experiment: BRET assay MOR and Nb6; format: cell-based; conditions: Log [Drug]
T1 construct: expressed in transfected cells; host or cells: HEK 293T (by the general BRET protocol; not repeated for MOR)

[1] = biological target: T2, human KOR containing C-terminal Renilla luciferase (RLuc8) (human, UniProt P41145); experiment: FRET or BRET; live HEK 293T cells co-transfected with receptor-RLuc and nanobody-mVenus (1:3); net BRET ratio without agonist (no drug, or with the antagonist JDTic); 20 mM HEPES, 1X HBSS, pH 7.4; conditions: partners not purified
T2 construct: kappa opioid receptor, human, wild type; also called KOR-Rluc; kappa opioid receptor; source: HEK 293T, co-transfected, in live cells; not shown: RLuc8, C-terminal, kept

[2] = biological target: T2, human KOR containing C-terminal Renilla …; experiment: FRET or BRET; kinetic BRET in HEK 293T cells co-expressing KOR-Rluc and Nb6-mVenus or Nb39-mVenus; 10 µM Sal A, then 10 µM JDTic added at the indicated times; t1/2 from one phase exponential decay; conditions: partners not purified

CC[C@H](C)[C@H](NC(=O)[C@H](CCCNC(=N)N)NC(=O)[C@H](CCCNC(=N)N)NC(=O)[C@H](CC(C)C)NC(=O)[C@H](Cc1ccccc1)NC(=O)CNC(=O)CNC(=O)[C@@H](N)Cc1ccc(O)cc1)C(=O)N[C@@H](CCCNC(=N)N)C(=O)N1CCC[C@H]1C(=O)N[C@@H](CCCCN)C(=O)N[C@@H](CC(C)C)C(=O)N[C@@H](CCCCN)C(=O)O [Dynorphin A, 1-13, Dynorphin A (1–13)]
Ki (KOR): 2.43 ± 0.2 nM

C[C@@H](NC(=O)[C@@H](N)Cc1ccc(O)cc1)C(=O)NCC(=O)N(C)[C@@H](Cc1ccccc1)C(=O)NCCO [DAMGO]
response (Figure S9b) (MOR; M -6): 34.0976 and 31.8296 and 33.2096 | response (Figure S9b) (MOR; M -7): 78.9066 and 72.2446 and 76.3636 | response (Figure S9b) (MOR; M -8): 84.8057 and 83.6246 and 84.5411 | response (Figure S9b) (MOR; M -9): 92.3096 and 93.4924 | response (Figure S9b) (MOR; M -10): 90.9034 and 89.2915 and 90.6654 | response (Figure S9b) (MOR; M -11): 93.7193 and 94.9714 and 95.2973 | response (Figure S9b) (MOR; M -12): 99.6463 and 100.354

B1: Nb6-mVenus with R102 mutated (VHH)
VHH: QVQLQESGGGLVQAGESLRLSCAASGTIFRLYDMGWYRRVSGNQRELVASITSGGSTKYGDSVKGRFTISRDNAKNTVYLQMSSLKPEDTAVYYCNAEYATGIWEELLDGWGQGTQVTVSS
notes: as the chain of m4 (PDB 6VI4) with R102 mutated; also called Nb6 R102 mutant; source: HEK 293T, co-transfected, in live cells; not shown: mVenus, C-terminal, kept
binding result [1]: no binding

B2: Nb6-mVenus with W106 mutated (VHH)
VHH: QVQLQESGGGLVQAGESLRLSCAASGTIFRLYDMGWYRRVSGNQRELVASITSGGSTKYGDSVKGRFTISRDNAKNTVYLQMSSLKPEDTAVYYCNAEYRTGIAEELLDGWGQGTQVTVSS
notes: as the chain of m4 (PDB 6VI4) with W106 mutated; also called Nb6 W106 mutant; source: HEK 293T, co-transfected, in live cells; not shown: mVenus, C-terminal, kept
binding result [1]: no binding

B3: Nb39-mVenus (VHH)
VHH: QVQLVESGGGLVRPGGSLRLSCVDSERTSYPMGWFRRAPGKEREFVASITWSGIDPTYADSVADRFTTSRDVANNTLYLQMNSLKHEDTAVYYCAARAPVGQSSSPYDYDYWGQGTQVTVSS
notes: nanobody chain of the cited KOR-MP1104-Nb39 structure PDB 6B73; A purified Nb39 from E. coli WK6 (no mVenus) was used at 5 µM in the radioligand assays; the functional row on it uses this id; also called positive allosteric nanobody; active-state associated nanobody; source: HEK 293T, co-transfected, in live cells; not shown: mVenus, C-terminal, kept
t1/2 of the reversal of the KOR-Nb39 association by JDTic [2]: 1.78 ± 0.25 min
